Reference: patent US20190136188A1, “4HPR AND ITS USE IN THE CULTURING OF HEMATOPOIETIC STEM CELLS” (UNIVERSITY HEALTH NETWORK, priority 2016, published 2019)

How the values were obtained:
sorted HSC, MPP or GMP = assay: Colony forming assay (CFC) in methylcellulose; type: cell-based, human
Method: (A) Dose response of varying [4HPR] in CB at day 3 post-treatment showing 2 uM 4HPR gives the relative half maximal number of viable cells compared to control. All experiments following are at this 4HPR concentration unless otherwise indicated. […] (C) LC/MS was used to profile the ceramide (Cer), dihydroceramide (dhCer), sphingosine (sph), dihydrosphingosine (dhSph), S1P and dihydro-S1P (dhS1P) levels in lin− CB cells cultured for 8 days with control or 4HPR (n=2). […] (D) HSC, MPP, or GMP were sorted into methylcellulose for CFC assays in the presence of control or 4HPR and colonies were blindly scored following 10-11 days for (D) colonies/100 cells and ((E) colony distribution are shown (n=7). (F) Flow cytometry for erythroid (GlyA+) and monocytic (CD14+) markers in live cells from pooled CFC colonies were scored (n=6). (F) Relative number of colonies from CFC assays comparing the effect of 4HPR or ATRA (n=3) on sorted HSC, MPP or GMP. […]
(A) Representative flow cytometry analysis of the primitive hierarchy within the CD34+ fraction of day 8 cultured lin− CB cells after the indicated treatments for CD90 and CD45RA, n=4. B) The distribution of cultured CD34+CD90+CD45RA− (cHSC), CD34+CD90−CD45RA− (cMPP), and […] for the indicated conditions at day 8 of ex vivo culture following CD34 enrichment. Statistical significance assayed through unpaired t-test relative to vehicle control (Ctrl). The relative number of colonies resulting from (C) HSC or (D) MPP grown in methylcellulose CFC assays in the presence of vehicle control (−) or the indicated combination of 2 uM 4HPR, or 35 nM UM171 or 0.5 uM SR1 at 10 days. Statistical significance is calculated via unpaired t-test relative to ctrl (black) or to the presence of absence of 4HPR treatment for UM171 or SR1.
However, the functional consequence of 4HPR treatment on human cord blood primitive cells is unknown. A dose titration of 4HPR was performed on lineage-depleted CB (lin-CB) cells and 2 uM was calculated to give half maximal cell viability at 3 days post-treatment compared to vehicle control (ctrl), a concentration reported in cell lines to antagonize DEGS1 enzymatic function, and used for all subsequent experiments unless otherwise indicated (FIG. 1A). […] Next, we utilized the colony forming assay (CFC) for in vitro progenitor function to determine if 4HPR treatment alters functional output from isolated populations of CB HSPC. […] This is unsurprising as retinoic acid signaling is a potent differentiation signal in hematopoietic cells. Thus, 4HPR inhibition of sphingolipid homeostasis selectively enhances cloning efficiency in human HSC.
Given the CD34 compartment where functional HSC should reside following ex vivo expansion is critical to blood production, we asked if there were immunophenotypic alterations following 4HPR treatment. StemRegenin-1 (SR1) or UM171 are two molecules whose action on CB has been reported to expand CD34+ cells dramatically and lead to increase reconstitution in xenotransplantation (Fares, et al Science, 2014: Boitano, Science, 2010). We sought to ask if limiting CD34+ expansion with 4HPR treatment is synergistic with these known agonists of CB ex vivo expansion. Lin− CB were cultured with these 3 small molecules alone or in combination for 8 days and the CD34 compartment was isolated and analyzed by flow cytometry further with CD90 and CD45RA to look at immunophenotypic cultured HSC (cHSC), MPP (cMPP) and committed progenitors (cProg). These populations were sorted from lin-CB at […] following expansion and transplanted into NSG mice for 16 weeks to ascertain that cProg cells are committed progenitors, while cHSC and cMPP retain multipotency following culture (FIG. 8A, B). […]

DEGS1 = settings: prolong exposure at micromolar concentrations in vitro; cited from earlier work
[1] = test system: CD34+CD38- (stem) and CD34+CD38+ (prog) cells; assay: cyto-ID flow cytometry (autophagic flux); type: cell-based, human; settings: day 2
Method: (A) Representative mmunofluorescence images taken by confocal microscopy for DAPI (blue) and LC3II staining (green) for CD34+CD38− cells (stem) following 2 days of treatment with DMSO control or 2 uM 4HPR with and without the autophagy inhibitor baflomycin A1 (BAF) to assay for basal autophagy and autophagic flux. (B) Quantitation of LC3II foci area as a percentage of total cell area for stem and prog (CD34+38+) cells from three independent CB using R and Image J software. (C) LCII foci area is increased with 4HPR treatment relative to control in the presence of BAF only in stem populations and not Prog populations. (D) Representative flow cytometry histogram plot of cyto-ID fluorescence intensity of control (black) and 4HPR (green) treated stem cells to assay for autophagic flux. Lower mean fluorescence intensity (MFI) indicates more turnover of autophagosomes and thus increased autophagic flux. […] (F) Cytokine withdrawal for 3 hours activates autophagic flux in CB stem cells to similar levels as 2 uM 4HPR as assayed by cyto-ID flow cytometry at day 2 post-treatment (n=3).
(B). […] This difference in mitochondrial content is lost by day 3 post culture (See FIG. 3K).
We hypothesize that such selective enhancement of CFC cloning efficiency with 4HPR treatment is a result of activating autophagy in HSC in human CB. […]

## CC1=C(/C=C/C(C)=C/C=C/C(C)=C/C(=O)Nc2ccc(O)cc2)C(C)(C)CCC1 [4HPR, N-(4hydroxyphenyl)retinamide]
Sorted HSC, MPP or GMP; 2 uM 4HPR in combination with either UM171 or SR1, to levels similar to 4HPR alone
  relative cloning efficiency from HSC: increased relative cloning efficiency from HSC
Sorted HSC, MPP or GMP; HSC and MPP samples, 2 uM 4HPR
  colony distribution (colony type): more likely to be granulocyte-macrophage (GM) colonies
Sorted HSC, MPP or GMP; HSC, 2 uM 4HPR, colonies scored after 10-11 days
  increase of colony output over control treatment: 50%
Sorted HSC, MPP or GMP; MPP or GMP, 2 uM 4HPR
  increase of colony output over control treatment: but not MPP or GMP
Sorted HSC, MPP or GMP; flow cytometry of pooled CFC colonies, 2 uM 4HPR
  myeloid (CD14) and erythroid (GlyA) output of cells from CFC assays: enhances myeloid output at the expense of erythroid differentiation
DEGS1
  DEGS1 activity: irreversibly inhibits DEGS1 activity
[1]; 0.2 uM or 2 uM 4HPR vs vehicle, stem vs prog
  autophagic flux by cyto-ID: only significantly induced in stem but not prog cells
[1]; CB stem cells, 3 hour cytokine withdrawal
  autophagy activated by cytokine withdrawal (cytoID): further enhanced in the presence of 4HPR
